Test results as given in ChEMBL document CHEMBL6182913, “Design of Potent Small-Molecule Stimulator of Interferon Gene Inhibitor and Stimulator of Interferon Gene Mutant-Specific Degrader” (J Med Chem, 2025).

Experiments:
[1] = target: Stimulator of interferon genes protein (Homo sapiens, UniProt Q86WV6, G230A/R293Q/R71H); experiment: Inhibition of cGAMP-induced STING HAQ mutant transfected in human THP1-Blue ISG cells preincubated with compound for 6 hrs followed by cGAMP addition and measured after 18 hrs by QUANTI-Blue based microplate reader analysis; type: cell-based
[2] = Cytotoxicity against human THP1-Blue ISG cells assessed as inhibition of cell growth at 10 uM incubated for 24 hrs by MTS assay relative to control; type: toxicity, cell-based

Stimulator of interferon genes protein, sequence (Q86WV6 whole entry R71H/G230A/R293Q): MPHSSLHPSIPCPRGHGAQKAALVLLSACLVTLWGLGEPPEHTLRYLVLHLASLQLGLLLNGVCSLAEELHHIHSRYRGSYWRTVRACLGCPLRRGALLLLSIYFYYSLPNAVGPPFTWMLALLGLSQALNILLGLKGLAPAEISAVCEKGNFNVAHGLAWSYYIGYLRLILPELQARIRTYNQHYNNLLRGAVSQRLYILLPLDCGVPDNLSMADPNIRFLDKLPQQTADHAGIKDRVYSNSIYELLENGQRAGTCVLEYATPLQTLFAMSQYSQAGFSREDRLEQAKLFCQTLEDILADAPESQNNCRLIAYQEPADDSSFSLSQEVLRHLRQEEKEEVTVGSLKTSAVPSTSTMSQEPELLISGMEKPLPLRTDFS

Row | IC50 [1] [µM] | Compound | inhibition at 24 h, 10 µM [2] [%]
1 | > 10 | CCC(=O)Nc1cc(NC(=O)c2ccc(Oc3ccc(C4C(C(N)=O)c5ccccc5C(=O)N4c4ccc(C(C)(C)C)c(Cl)c4)cc3)cc2)ccc1O (stereo not given) | 7.5
2 | > 10 | CC(C)(C)c1ccc(N2C(=O)c3ccccc3C(C(N)=O)C2c2cc3cc(-c4ccc(C(=O)Nc5cc(O)cc(NS(C)(=O)=O)c5)cc4)ccc3o2)cc1Cl (stereo not given) | 46.2
3 | > 10 | CC(C)(C)c1ccc(N2C(=O)c3ccccc3C(C(N)=O)C2c2ccc(Oc3ccc(C(=O)Nc4ccc(O)cc4)cc3)cc2)cc1Cl (stereo not given) | 29.4
4 | 3.2 | CC(C)(C)c1ccc(N2C(=O)c3ccccc3C(C(N)=O)C2c2ccc(Oc3ccc(C(=O)Nc4cc(F)c(O)c(F)c4)cc3)cc2)cc1Cl (stereo not given) | 44.5
5 | 0.72 | CC(C)(C)c1ccc(N2C(=O)c3cc(F)ccc3C(C(N)=O)C2C2=Cc3cc(-c4ccc(C(=O)Nc5ccc(O)c(NS(C)(=O)=O)c5)cc4)ccc3S2(=O)=O)cc1Cl (stereo not given) | 12.7
6 | > 10 | CC(C)(C)c1ccc(N2C(=O)c3ccccc3C(C(N)=O)C2c2cc3cc(-c4ccc(C(=O)NC5CCN(S(C)(=O)=O)CC5)cc4)ccc3o2)cc1Cl (stereo not given) | 35.2
7 | 0.44 | CC(C)(C)c1ccc(N2C(=O)c3ccccc3C(C(N)=O)C2c2cc3cc(-c4ccc(C(=O)Nc5ccc(O)c(NS(C)(=O)=O)c5)cc4)ccc3s2)cc1Cl (stereo not given) | 15.9
8 | > 10 | CC(C)(C)c1ccc(N2C(=O)c3ccccc3C(C(N)=O)C2c2cc3cc(-c4ccc(NC(=O)c5cc(O)cc(NS(C)(=O)=O)c5)cc4)ccc3s2)cc1Cl (stereo not given) | 50.2
9 | 0.1 | CC(C)(C)c1ccc(N2C(=O)c3ccccc3C(C(N)=O)C2c2cc3cc(-c4ccc(C(=O)Nc5ccc(O)c(NS(C)(=O)=O)c5)cc4)ccc3o2)cc1F (stereo not given) | 55.6
10 | 0.95 | CC(C)(C)c1ccc(N2C(=O)c3cc(F)ccc3C(C(N)=O)C2c2ccc3sc(-c4ccc(C(=O)Nc5ccc(O)c(NS(C)(=O)=O)c5)cc4)cc3c2)cc1Cl (stereo not given) | 7.7
11 | > 10 | CC(C)(C)c1ccc(N2C(=O)c3ccccc3C(C(N)=O)C2c2ccc(Oc3ccc(C(=O)Nc4ccc(O)c(NS(C)(=O)=O)c4)cc3)cc2)cc1Cl (stereo not given) | 33.8
12 | > 10 | CC(C)(C)c1ccc(N2C(=O)c3ccccc3C(C(N)=O)C2c2cc3cc(-c4ccc(C(=O)Nc5ccc(O)c(NS(=O)(=O)C(F)(F)F)c5)cc4)ccc3o2)cc1Cl (stereo not given) | 20.2
13 | 0.8 | CC(C)(C)c1ccc(N2C(=O)c3cc(F)ccc3C(C(N)=O)C2c2ccc3sc(-c4ccc(C(=O)Nc5ccc(O)c(NS(C)(=O)=O)c5)cc4F)cc3c2)cc1Cl (stereo not given) | 11.1
14 | 0.54 | CS(=O)(=O)Nc1cc(NC(=O)c2ccc(-c3ccc4oc(C5C(C(N)=O)c6ccccc6C(=O)N5c5ccc6c(c5)CCCC6)cc4c3)cc2)ccc1O (stereo not given) | 38.7
15 | 3.6 | CS(=O)(=O)Nc1cc(NC(=O)c2ccc(-c3ccc4oc(C5C(C(N)=O)c6ccccc6C(=O)N5c5ccccc5)cc4c3)cc2)ccc1O (stereo not given) | 23
16 | 0.27 | CS(=O)(=O)Nc1cc(NC(=O)c2ccc(-c3ccc4oc(C5C(C(N)=O)c6ccccc6C(=O)N5c5ccc(Br)c(Cl)c5)cc4c3)cc2)ccc1O (stereo not given) | 65.1
17 | > 10 | CC(C)(C)c1ccc(N2C(=O)c3ccccc3C(C(N)=O)C2c2ccc(Oc3ccc(C(=O)Nc4ccc(CO)c(NS(C)(=O)=O)c4)cc3)cc2)cc1Cl (stereo not given) | 0
18 | 6.5 | CN1C(=O)c2ccccc2C(C(N)=O)C1c1cc2cc(-c3ccc(C(=O)Nc4ccc(O)c(NS(C)(=O)=O)c4)cc3)ccc2o1 (stereo not given) | 57.9

Row | IC50 [1] [µM] | Compound | inhibition at 24 h, 10 µM [2] [%]
19 | 0.82 | CN(c1ccc(C(=O)Nc2ccc(O)c(NS(C)(=O)=O)c2)cc1)c1ccc(C2C(C(N)=O)c3ccccc3C(=O)N2c2ccc(C(C)(C)C)c(Cl)c2)cc1 (stereo not given) | 1.2
20 | > 10 | CC(C)(C)c1ccc(N2C(=O)c3ccccc3C(C(N)=O)C2c2cc3cc(-c4ccc(C(=O)N[C@H]5CC[C@H](O)CC5)cc4)ccc3o2)cc1Cl (stereo not given in full) | 67
21 | 3.2 | CC(C)(C)c1ccc(N2C(=O)c3ccccc3C(C(N)=O)C2c2ccc(Nc3ccc(C(=O)Nc4ccc(O)c(NS(C)(=O)=O)c4)cc3)cc2)cc1Cl (stereo not given) | 0
22 | 0.14 | CC(C)(C)c1ccc(N2C(=O)c3ccccc3C(C(N)=O)C2c2cc3cc(-c4ccc(C(=O)Nc5ccc(O)c(NS(C)(=O)=O)c5)cn4)ccc3o2)cc1Cl (stereo not given) | 45.7
23 | 0.27 | CS(=O)(=O)Nc1cc(NC(=O)c2ccc(-c3ccc4oc(C5C(C(N)=O)c6ccccc6C(=O)N5c5ccc(C6CC6)cc5)cc4c3)cc2)ccc1O (stereo not given) | 25.6
24 | 2.8 | CC(C)(C)c1ccc(N2C(=O)c3ccccc3C(C(N)=O)C2c2ccc3oc(-c4ccc(C(=O)Nc5ccc(O)c(NS(C)(=O)=O)c5)cc4)cc3c2)cc1Cl (stereo not given) | 14
25 | 0.11 | CS(=O)(=O)Nc1cc(NC(=O)c2ccc(-c3ccc4oc(C5C(C(N)=O)c6ccccc6C(=O)N5c5ccc(C6CC6)c(Cl)c5)cc4c3)cc2)ccc1O (stereo not given) | 61.5
26 | > 10 | CC(C)(C)c1ccc(N2C(=O)c3ccccc3C(C(N)=O)C2c2ccc(Oc3ccc(C(=O)Nc4ccc(NS(C)(=O)=O)cc4)cc3)cc2)cc1Cl (stereo not given) | 13.7
27 | > 10 | CC(C)(C)c1ccc(N2C(=O)c3ccccc3C(C(N)=O)C2c2ccc3c(c2)C=C(c2ccc(C(=O)Nc4ccc(O)c(NS(C)(=O)=O)c4)cc2)S3(=O)=O)cc1Cl (stereo not given) | 36.1
28 | 0.18 | CC(C)(C)c1ccc(N2C(=O)c3ccccc3C(C(N)=O)C2c2ccc3sc(-c4ccc(C(=O)Nc5ccc(O)c(NS(C)(=O)=O)c5)cc4)cc3c2)cc1Cl (stereo not given) | 3.9
29 | > 10 | CC(C)(C)c1ccc(N2C(=O)c3ccccc3C(C(N)=O)C2c2cc3cc(-c4ccc(C(=O)N[C@H]5CC[C@@H](O)CC5)cc4)ccc3o2)cc1Cl (stereo not given in full) | 59.6
30 | > 10 | CC(C)(C)c1ccc(N2C(=O)c3cc(F)ccc3C(C(N)=O)C2c2ccc3sc(-c4ccc(C(=O)Nc5ccc(O)c(C(N)=O)c5)cc4)cc3c2)cc1Cl (stereo not given) | 14.7
31 | > 10 | CC(C)(C)c1ccc(N2C(=O)c3ccccc3C(C(N)=O)C2c2cc3cc(-c4ccc(C(=O)Nc5ccc(N)c(NS(C)(=O)=O)c5)cc4)ccc3o2)cc1Cl (stereo not given) | 28.5
32 | > 10 | CC(C)(C)c1ccc(N2C(=O)c3cc(F)ccc3C(C(N)=O)C2c2ccc3sc(-c4ccc(C(=O)Nc5ccc(O)c(NS(=O)(=O)C6CC6)c5)cc4)cc3c2)cc1Cl (stereo not given) | 7.7
33 | > 10 | CC(C)(C)c1ccc(N2C(=O)c3ccccc3C(C(N)=O)C2c2ccc(Oc3ccc(C(=O)Nc4cccc(NS(C)(=O)=O)c4)cc3)cc2)cc1Cl (stereo not given) | 10.5
34 | 2.3 | CC(C)(C)c1ccc(N2C(=O)c3cc(F)ccc3C(C(N)=O)C2c2cc3cc(-c4ccc(C(=O)Nc5ccc(O)c(NC(=O)C(F)(F)F)c5)cc4)ccc3s2)cc1Cl (stereo not given) | 12.5
35 | 0.45 | CC(C)(C)c1ccc(N2C(=O)c3cc(F)ccc3C(C(N)=O)C2c2cc3cc(-c4ccc(C(=O)Nc5ccc(O)c(NS(C)(=O)=O)c5)cc4)ccc3s2)cc1Cl (stereo not given) | 23.2
